Common to all, as to format: biochemical
Experiment [1] addresses T1, Sfp (Bacillus subtilis, UniProt P39135). Put plainly: FRET phosphopantetheinyl transferase assay with purified enzyme.
Experiment [2] concerns the target T2, AcpS (Escherichia coli, UniProt P24224). Described as above.
Experiment [3] has as its target T1, Sfp. Put plainly: HPLC enzyme kinetics.
For experiment [4], the target named is T2, AcpS. Kind of experiment: HPLC enzyme kinetics.

These results are taken from PMC2761036 (Analytical biochemistry, 2009).

By IC50 is commonly meant the concentration at which inhibition is half-maximal. A word on the Km: it is the concentration of substrate that gives half-maximal velocity.

T2 sequence (P24224 2-126): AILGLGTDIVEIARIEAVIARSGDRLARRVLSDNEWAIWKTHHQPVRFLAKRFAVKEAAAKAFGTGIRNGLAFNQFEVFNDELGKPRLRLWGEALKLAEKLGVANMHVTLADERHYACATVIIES
T1 sequence (P39135 whole entry): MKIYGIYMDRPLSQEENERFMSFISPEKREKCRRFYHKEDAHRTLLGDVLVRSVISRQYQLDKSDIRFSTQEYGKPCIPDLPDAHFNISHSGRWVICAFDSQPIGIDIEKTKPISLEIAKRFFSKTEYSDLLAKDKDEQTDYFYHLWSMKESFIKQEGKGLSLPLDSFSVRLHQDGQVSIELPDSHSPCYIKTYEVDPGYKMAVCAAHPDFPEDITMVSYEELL

`Nc1ncnc2c1ncn2[C@@H]1O[C@H](COP(=O)(O)O)[C@@H](OP(=O)(O)O)[C@H]1O` [compound 3, 3’-phosphoadenosine-5’-phosphate]: the half-maximal inhibitory concentration (IC50) stood at 12.3 ± 1.1 µM against Sfp [1] and 92 ± 6 µM at AcpS [2].

Regarding TAMRA-mCoA [compound 12], the Km on Sfp [3] worked out at 6 µM; on AcpS [4], 22 µM.
